Assays:
native tau aggregates = assay: TAU radioligand in vitro displacement assay ([^3H]T808, autoradiography); type: binding; settings: human AD brain sections; radioligand [^3H]T808 10 nM; cold compound 10 nM; 50 mM Tris pH 7.4, room temperature, 30 min
Protocol: (§1) FIG. 3 represents data from the TAU radioligand in vitro displacement assay described below. This in vitro binding assay assesses the affinity of compounds for native tau aggregates. The compounds are co-incubated with the well-established tau specific radioligand [^3H]T808 and the compound's displacement potency of [^3H]T808 binding is determined by in vitro autoradiography using human Alzheimer's disease (AD) brain sections.
as §1, with “This” for “FIG. 3 represents data from the TAU radioligand in vitro displacement assay described below. This”, “sections (see FIG. 3).” for “sections.”
AD human brains are purchased from Banner Sun Health Research Institute (Sun City, Ariz., USA). Pathological diagnosis of AD is made according to standard NIA-Reagan Institute criteria based on neuropathological data. The radioligand [^3H]T808 was synthesized in-house ([^3H]-2-[4-(2-Fluoro-ethyl)-piperidin-1-yl]-benzo[4,5]imidazo[1,2-a]pyrimidine, radiochemical purity 99.0%). As a reference cold T808 is used (2-[4-(2-Fluoro-ethyl)-piperidin-1-yl]-benzo[4,5]imidazo[1,2-a]pyrimidine). For the autoradiography FujiFilm Imaging Plates (BAS-IP TR 2025) are exposed to the sections and read with a FujiFilm IP reader (BAS-5000).
Ten μm thick human AD brain sections are generated with a cryostat (Leica CM3050) at −17° C. chamber temperature and −15° C. object temperature. Sections are transferred to Histobond+ microscope slides (Marienfeld Laboratory Glasware). After drying for 3 hours at room temperature the sections are stored at −20° C. The sections are incubated with the radioligand (10 nM) and the respective cold compound (at various concentrations) in 50 mM Tris buffer, pH 7.4 at room temperature for 30 min. After washing 3×10 min at 4° C. in 50 mM Tris buffer, pH 7.4 and 3 quick dips in H2O dist. at 4° C. the sections are dried at 4° C. for 3 h. The sections are placed in a FujiFilm Cassette (BAS 2025), exposed with an Imaging Plate for five days and afterwards scanned with a resolution of […].
The signal intensity (Dens-PSL/mm2) in the region of interest (ROI) of the autoradiogram is quantified with the software MCID analysis (version 7.0, Imaging Research Inc.). The specific binding (SB) of [^3H]T808 binding in absence or in presence of a compound is calculated by subtracting the non-specific binding signal in the white matter, thus yielding SB[3H]T808 only and SBcompound. The % displacement by the various compounds is calculated as following: % displacement=100−(SBcompund/SB[3H]T808 only)*100. Validation Data
In each experiment cold T808 is used as a positive internal control. […]

tau aggregates = assay: Autoradiography of tritiated radioligands on human cortical AD brain sections; type: binding; settings: Braak V staged AD patient
tau aggregates, sequence (P10636 623-695 limits assumed): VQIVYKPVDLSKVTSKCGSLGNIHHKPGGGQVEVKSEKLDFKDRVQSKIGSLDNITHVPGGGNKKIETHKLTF
Protocol: FIG. 1 is an autoradiogram of [^3H]-2-(4-methoxyphenyl)imidazo[1,2-a]pyridin-7-amine (example 5) incubated with human cortical brain sections obtained from a Braak V staged AD patient. The radioligand concentration was 2.6 nM.
FIG. 2 is an autoradiogram of [^3H]-2-[4-(2-fluoroethoxy)phenyl]imidazo[1,2-a]pyridin-7-amine (example 6) incubated with human cortical brain sections obtained from a Braak V staged AD patient. The radioligand concentration was 2.5 nM.
FIGS. 1 and 2 represent autoradiograms of respectively [[^3H]-2-(4-methoxyphenyl)imidazo[1,2-a]pyridin-7-amine (example 5) and [^3H]-2-[4-(2-fluoroethoxy)phenyl]imidazo[1,2-a]pyridin-7-amine (example 6) incubated with human cortical brain sections obtained from a Braak V staged AD patient. The radioligand concentrations were 2.6 and 2.5 nM, respectively.

Compound | % displacement of [^3H]T808 (10 nM) at 10 nM (native tau aggregates) [%] | further results
Nc1ccn2cc(-c3ccc(OCCF)cc3)nc2c1 [Example 4, 2-[4-(2-Fluoroethoxy)phenyl]imidazo[1,2-a]pyridin-7-amine] | 50 | 
[^3H]-2-(4-Methoxyphenyl)imidazo[1,2-a]pyridin-7-amine [Example 5] |  | autoradiogram staining pattern (tau aggregates; radioligand concentration 2.6 nM (FIG. 1)): punctate staining of tau aggregates in a layered distribution pattern and a varying degree of non-specific binding in white matter
Nc1ccn2cc(-c3ccc(OCCCF)cc3)nc2c1 [Example 3, 2-[4-(3-Fluoropropoxy)phenyl]imidazo[1,2-a]pyridin-7-amine] | 25 | 
[^3H]-2-[4-(2-Fluoroethoxy)phenyl]imidazo[1,2-a]pyridin-7-amine [Example 6] |  | autoradiogram staining pattern (tau aggregates; radioligand concentration 2.5 nM (FIG. 2)): punctate staining of tau aggregates in a layered distribution pattern and a varying degree of non-specific binding in white matter
COc1ccc(-c2cn3ccc(N)cc3n2)cc1 [Example 1, 2-(4-Methoxyphenyl)imidazo[1,2-a]pyridin-7-amine] | 67 | 
Nc1ccn2cc(-c3ccc(OCF)cc3)nc2c1 [Example 2, 2-(4-(Fluoromethoxy)phenyl)imidazo[1,2-a]pyridin-7-amine] | 51 | 

Source: patent publication US9957266B2, “Imidazo[1,2-a]pyridin-7-amine” (Hoffmann-La Roche Inc., priority 2013, dated 2018)
